Results as given in US8147444B2, “Methods of treating or preventing peritonitis with oxidative reductive potential water solution” (Oculus Innovative Sciences, Inc., priority 2006, dated 2012).
Where two headings read alike, the source gives them in different places. Bridge positions count the residues as written; N and C are the ends. Square brackets hold non-standard residues; d marks the D form. Peptide text beside a SMILES is read from it. * marks the point of attachment. Ileψ(thiazoline)Cys = CC[C@H](C)[C@H](N)C1=N[C@H](C(=O)*)CS1; dOrn = NCCC[C@@H](N)C(=O)O

How the values were obtained:
[1] = tested on: murine polychromatic erythrocytes
Procedure: The mammalian in vivo micronucleus test is used for the identification of substances which cause damage to chromosomes or the mitotic apparatus of murine polychromatic erythrocytes. This damage results in the formation of “micronuclei,” intracellular structures containing lagging chromosome fragments or isolated whole chromosomes. […] The positive control mice received a single intraperitoneal injection of cyclophosphamide (8 mg/mL, 12.5 ml/kg) on day 2. All mice were observed immediately after injection for any adverse reactions. […] On day 3, all mice were weighed and terminated.
The femurs were excised from the terminated mice, the bone marrow was extracted, and duplicate smear preparations were performed for each mouse. The bone marrow slides for each animal were read at 40× magnification. The ratio of polychromatic erythrocytes (PCE) to normochromatic erythrocytes (NCE), an index of bone marrow toxicity, was determined for each mouse by counting a total of at least 200 erythrocytes. Then a minimum of 2000 scoreable PCE per mouse were evaluated for the incidence of micronucleated polychromatic erythrocytes. Statistical analysis of the data were done using the Mann and Whitney test (at 5% risk threshold) from a statistical software package (Statview 5.0, SAS Institute Inc., USA).

primary HDF cultures = settings: human, 1 month, 5 µM
[2] = tested on: human diploid fibroblasts (HDFs); test: Cell viability, apoptosis and necrosis by flow cytometry; type: cell-based; settings: 880 mM
Procedure: HP is known to be toxic to eukaryotic cells, increasing apoptosis and necrosis and reducing cellular viability. […] HDF cultures were obtained from three different foreskins, which were pooled and cryopreserved together for the purpose of this study. Only diploid cells were used for all experiments. […] Simultaneous analyses of these parameters were performed in the same cell populations by flow cytometry using: […] B) Annexin V-FITC; and C) Propidium iodide. FIG. 4A-4C disclose percentage values expressed as mean±SD (n=3).

[3] = tested on: B. atropheus spores, Pseudomonas aeruginosa, and Staphylococcus aureus; test: Bacterial suspension assay, test organisms not told apart; type: cell-based; settings: Bacitracin 33 Units/ml; over the time periods tested
Procedure: Dermacyn is a ready to use product, therefore performing dilutions during testing was not required.
A purchased spore suspension of B. atropheus at 2.5×10^7/ml was used for testing. In addition fresh suspensions of Pseudomonas aeruginosa, and Staphylococcus aureus were prepared and measured using a spectrophotometer to ensure the titer was acceptable
Nine microliters of test substance was added to 100 ul of microbe suspension. The test mixture was held at 20° C. for the contact times of 20 seconds, 5 minutes, and 20 minutes. […] (entire mixture) was added to 9.0 ml of neutralizer for 20 minutes (this is the original neutralization tube or ONT) 1.0 ml of the neutralized test mixture was plated on Tryptic Soy Agar in duplicate for the 5 minute and 20 minute contact times. Additional dilutions and spread plates were used for the 20 second time point, to achieve countable plates.
All plates were incubated at 30° C.-35° C. for a total of 3 days and were evaluated after each day of incubation.

**Q.** How did the “number of polychromatic erythrocytes bearing micronuclei” value ([1]; females, negative control 1.0) turn out when O=P1(N(CCCl)CCCl)NCCCO1 (centres unmarked) [cyclophosphamide] was run?
**A.** 12.6

**Q.** What about the PCE/NCE ratio ([1]; females, negative control 1.02) of the same molecule?
**A.** 0.73

**Q.** What about the “number of polychromatic erythrocytes bearing micronuclei” value ([1]; males, negative control 0.6) of the same molecule?
**A.** 11.0

**Q.** And the PCE/NCE ratio ([1]; males, negative control 0.90)?
**A.** 0.77

**Q.** For OO [HP, hydrogen peroxide], which “Cells with SA-β-Gal expression” value (primary HDF cultures) is on record?
**A.** 86%

**Q.** And the “Apoptosis, cells exposing Annexin-V” value ([2]; 5 min)?
**A.** 15%

**Q.** And the “Apoptosis, cells exposing Annexin-V” value ([2]; 30 min)?
**A.** 20%

**Q.** How did the “lowering of bacterial or spore populations” value [3] turn out when CC[C@H](C)[C@H](N)C1=N[C@H](C(=O)N[C@@H](CC(C)C)C(=O)N[C@H](CCC(=O)O)C(=O)N[C@H](C(=O)N[C@H]2CCCCNC(=O)[C@H](CC(N)=O)NC(=O)[C@@H](CC(=O)O)NC(=O)[C@H](Cc3cnc[nH]3)NC(=O)[C@@H](Cc3ccccc3)NC(=O)[C@H]([C@@H](C)CC)NC(=O)[C@@H](CCCN)NC2=O)[C@@H](C)CC)CS1 [Bacitracin] ({Ileψ(thiazoline)Cys}-L[dE]IK[dOrn]I[dF]H[dD]N; lactam 4-C) was run?
**A.** no evidence of lowering the bacterial or spore populations
